Reference: paper PMC8389922, “First-in-Class Cyclic Temporin L Analogue: Design, Synthesis, and Antimicrobial Assessment” (Journal of Medicinal Chemistry, 2021)
Bridge positions count the residues as written; N and C are the ends. Square brackets hold non-standard residues; d marks the D form. Peptide text beside a SMILES is read from it.

Tests used:
[1] = CD in SUVs, ratio of ellipticities at 222 and 208 nm; format: physicochemical; settings: peptide 8 μM, lipid 100 μM, phosphate buffer 5 mM pH 7.4, 25 °C, >1.0 indicates oligomeric helices
Description: TEXT PRINTED IN THE PICTURE: (c) 9: DOPG/CL mimicking Gram-positive membrane: θ222/ θ208: 1.7 | (c) 12: DOPG/CL mimicking Gram-positive membrane: θ222/ θ208: 2.6 | (c) 17: DOPG/CL mimicking Gram-positive membrane: θ222/ θ208: 1.9 | (f) 9: DOPE/DOPG/CL mimicking Gram-negative membrane: θ222/ θ208: 1.8 | (f) 12: DOPE/DOPG/CL mimicking Gram-negative membrane: θ222/ θ208: 2.1 | (f) 17: DOPE/DOPG/CL mimicking Gram-negative membrane: θ222/ θ208: 1.7
The ratio of the ellipticities at 222 and 208 nm was calculated to discriminate between monomeric and oligomeric states of helices.[64] As observed in our CD spectra, the ratio θ222/θ208 is always greater than 1.0 in both membranes, indicating an α-helical conformation in its oligomeric state (Figure 4c,f).
SUVs were prepared as reported: lipids (Gram-positive, DOPG/CL, 58/42 ratio in moles; Gram-negative DOPG/DOPE/CL, 63/23/12 ratio in moles) were dissolved in chloroform and an identical volume of peptide solution dissolved in TFE was added.[76] Then, the samples were vortexed and lyophilized overnight. CD spectra were recorded at a peptide concentration of 8 μM and at a lipid final concentration of 100 μM. […] CD spectra were recorded at 25 °C on a Jasco J-715 spectropolarimeter in a 1 cm quartz cell using three consecutive scans from 260 to 190 nm, 3 nm bandwidth, a time constant of 16 s, and a scan rate of 10 nm/min.

[2] = tested on: S. aureus MRSA ATCC 43300; experiment: In vitro time kill assay; format: cell-based, Staphylococcus aureus; settings: 10^6 CFU/mL, peptide at the MIC (12.5 μM peptide 12; 25 μM peptide 9), 37 °C, CFU counts
Method: Thus, 12 was further tested against S. aureus ATCC 43300, a methicillin-resistant strain (MRSA), and compared with the linear precursor 9. […] No growth was observed after 24 h. Peptide 9 was bactericidal as well, by killing MRSA within 10 min, but at a higher concentration (25 μM).
Figure 7 In vitro time kill assay. […] The inhibitory effect on bacterial growth was assessed by measuring the number of CFU obtained after the treatment.
The plates were incubated at 37 °C on an orbital shaker at 120 rpm. Viability assessments were performed at 10 min, 30 min, 1 h, 2 h, and 24 h by plating 0.01 mL of undiluted and 10-fold serially diluted samples onto Mueller–Hinton plates in triplicate. After overnight incubation at 37 °C, bacterial colonies were counted and compared with counts from control cultures.

SMILES | θ222/θ208 ([1]; CD in DOPE/DOPG/CL SUVs) | θ222/θ208 ([1]; CD in DOPG/CL SUVs) | time within which the MRSA strain was killed [2]
CC[C@H](C)[C@H](NC(=O)[C@H](CCCNC(=N)N)NC(=O)[C@@H]1CCCCn2cc(nn2)C[C@H](NC(=O)[C@H](Cc2ccccc2)NC(=O)[C@H](Cc2c[nH]c3ccccc23)NC(=O)[C@@H]2CCCN2C(=O)[C@@H](NC(=O)[C@@H](N)Cc2ccccc2)C(C)C)C(=O)N[C@@H](CCCCN)C(=O)N[C@@H](Cc2ccccc2)C(=O)NC(CC(C)C)C(=O)N1)C(=O)N[C@@H](CC(C)C)C(N)=O (stereo in doubt) [compound 17] | 1.7 | 1.9 | –
CC[C@H](C)[C@H](NC(=O)[C@H](CCCNC(=N)N)NC(=O)[C@@H]1CCC(=O)NCCCC[C@H](NC(=O)[C@H](Cc2ccccc2)NC(=O)[C@H](Cc2c[nH]c3ccccc23)NC(=O)[C@@H]2CCCN2C(=O)[C@@H](NC(=O)[C@@H](N)Cc2ccccc2)C(C)C)C(=O)N[C@@H](CCCCN)C(=O)N[C@@H](Cc2ccccc2)C(=O)N[C@H](CC(C)C)C(=O)N1)C(=O)N[C@@H](CC(C)C)C(N)=O [compound 12] (H-FVPWFKKF[dL]ERIL-NH2; lactam 6-10) | – | – | ≤ 30 min
